The values that follow come from US10688096B2, “Methods for treatment of sleep-related breathing disorders” (The University of Chicago, priority 2010, dated 2020).

Assay [1] concerns carotid body. Kind of assay: Carotid body sensory activity ex vivo (carotid sinus nerve single unit discharge), rats. On the procedure:
(§1) Sensory activity from carotid bodies ex vivo was recorded as previously described (Peng, Y. J., et al., PNAS, 2003, 100, 10073-78; Peng Y. J., et. al., J. Physiol., 2006, 577, 705-716). Briefly, carotid bodies along with the sinus nerves were harvested from anaesthetized mice or rats, placed in a recording chamber (volume, 250 μl) and superfused with warm physiological saline (35° C.) at a rate of 2.5 ml/min having the following composition (mM): NaCl (140), KCl (5.4), CaCl2 (2.5), MgCl2 (0.5), HEPES (5.5), D-glucose (11), sucrose (5), and the solution was bubbled with 100% O2 and pH was adjusted to 7.35. Carotid bodies were challenged with graded hypoxia by switching the perfusate equilibrated with gas mixtures containing varying levels of O2. For assessing the carotid body response to CO2, bicarbonate-buffered medium equilibrated with either […] (baseline) or 90% 02+10% CO2 balance N2. Clearly identifiable action potentials (2-3 active units) were recorded from one of the nerve bundles with a suction electrode and stored in a computer via a data acquisition system (PowerLab/8P, AD Instruments Pty Ltd, Australia). ‘Single’ units were selected based on the height and duration of the individual action potentials using a spike discrimination program (Spike Histogram Program, Power Laboratory, AD Instruments). In each carotid body, at least two chemoreceptor units were analyzed. The PO2, and PCO2 of the superfusion medium were determined by a blood gas analyzer (ABL 5, Radiometer, Copenhagen, Denmark).
(§2) Rats and mice were treated with DL-propargylglycine (Sigma; 200 mg/kg) or Cr(III) Mesoporphyrin IX chloride (CrM459, Frontier Scientific, Logan, Utah; 1 mg/kg) intraperitoneally 2-3 h before acute experiments on anesthetized animals. NaHS (Sigma chemicals, MO) was given acutely to the ex vivo carotid body preparation. In the in vitro assays for H2S measurements, known concentrations of HO-2 inhibitor and CO donor (tricarbonyldichlororuthenium, [Ru(CO)3Cl2]2, Sigma, USA) were added to cell lysates. All solutions with drugs were prepared fresh during the experiments.
(§3) In unsedated mice RR (breaths/min), VT (μl), minute ventilation [VE (ml/min)=RR×VT], O2 consumption (VO2, ml/min), and CO2 production (VCO2 ml/min) were analyzed. Respiratory variables (RR and VT) were averaged for at least 20 consecutive breaths over 5 min of inspired O2 and CO2 challenge. VT, VE, VO2 and VCO2 were normalized to body weight. Carotid body sensory activity (discharge from ‘single’ units) was averaged during 3 min of baseline and during the 3 min of gas challenge and expressed as impulses per second unless otherwise stated. The number of secretory events and the amount of catecholamine secreted per secretory event were analyzed in each experiment and the data were expressed as total catecholamines secreted. Average data are presented as mean±S.E.M. Statistical significance was assessed by either ANOVA or two-way ANOVA with repeated measures followed by Tukey's test. p values <0.05 were considered significant.

Assay [2] has as its system carotid body. The assay is described as follows: Carotid body sensory activity ex vivo (carotid sinus nerve single unit discharge), mice. On the procedure:
as §1, §2, §3

Assay [3] has as its system H2S generation in carotid bodies. Kind of assay: Measurement of H2S levels in carotid body homogenates, mice. In kind it is biochemical. As to conditions: 1 μM, normoxia, FIG. 5A. On the procedure: H2S levels in the carotid body were assayed as follows. Briefly, carotid bodies were pooled (4 carotid bodies per experiment in rats; 6 carotid bodies per experiment in mice) and tissue homogenates were prepared in 100 mM potassium phosphate buffer, pH 7.4. The enzyme reaction was carried out in sealed tubes flushed with either N2 or different levels of O2—N2 gas mixtures. The PO2 of the reaction medium was determined by blood gas analyzer (ABL5). The assay mixture in a total volume of 500 μl contains (in final concentration): L-cysteine, (800 μM); pyridoxal 5′-phosphate, (80 μM); potassium phosphate buffer, pH 7.4, (100 mM); and tissue homogenate (2 μg protein). The reaction mixture was incubated at 37° C. for 1 h and at the end of the reaction, alkaline zinc acetate (1% w/v; 250 up and trichloroacetic acid (10% v/v) was added sequentially to trap H2S generated and to stop the reaction, respectively. The zinc sulfide formed was reacted sequentially with acidic N,N-dimethyl-p-phenylenediamine sulfate (20 μM) and ferric chloride (30 μM) and the absorbance was measured at 670 nm using a micro-plate reader. A standard curve relating the concentration of Na2S and absorbance was used to calculate H2S concentration and expressed as nanomoles of H2S formed per hour per milligram protein. […]

Assay [4] shares this test system. The assay is described as follows: Measurement of H2S levels in carotid body homogenates, rats. Type of assay: biochemical. The procedure: H2S levels in the carotid body were assayed as follows. Briefly, carotid bodies were pooled (4 carotid bodies per experiment in rats; 6 carotid bodies per experiment in mice) and tissue homogenates were prepared in 100 mM potassium phosphate buffer, pH 7.4. The enzyme reaction was carried out in sealed tubes flushed with either N2 or different levels of O2—N2 gas mixtures. The PO2 of the reaction medium was determined by blood gas analyzer (ABL5). The assay mixture in a total volume of 500 μl contains (in final concentration): L-cysteine, (800 μM); pyridoxal 5′-phosphate, (80 μM); potassium phosphate buffer, pH 7.4, (100 mM); and tissue homogenate (2 μg protein). The reaction mixture was incubated at 37° C. for 1 h and at the end of the reaction, alkaline zinc acetate (1% w/v; 250 up and trichloroacetic acid (10% v/v) was added sequentially to trap H2S generated and to stop the reaction, respectively. The zinc sulfide formed was reacted sequentially with acidic N,N-dimethyl-p-phenylenediamine sulfate (20 μM) and ferric chloride (30 μM) and the absorbance was measured at 670 nm using a micro-plate reader. A standard curve relating the concentration of Na2S and absorbance was used to calculate H2S concentration and expressed as nanomoles of H2S formed per hour per milligram protein.
as §2

For assay [5], the system named is neonatal adrenal medullary chromaffin cells (AMC). The assay is described as follows: Catecholamine secretion from neonatal adrenal medullary chromaffin cells by amperometry. To be noted: 40 mM K+, AMC from PAG treated rat pups; FIG. 6B. Type of assay: cell-based, rats. The procedure: The protocols for preparation of chromaffin cells and measurements of catecholamine secretion by amperometry are as follows. Briefly, adrenal glands were harvested from anesthetized mice and rats aged P10. Chromaffin cells were enzymatically dissociated, plated on collagen (type VII; Sigma) coated coverslips, and maintained at 37° C. in a 5% CO2 incubator for 12-24 h. The growth medium consisted of F-12 K medium (Invitrogen) supplemented with 10% horse serum, 5% fetal bovine serum, and 1% Penicillin/streptomycin/glutamine cocktail (Invitrogen). Catecholamine secretion from chromaffin cells was monitored by amperometry using carbon fiber electrodes. […] Normoxic solutions were equilibrated with room air (PO2˜146 mmHg), and hypoxic solutions were equilibrated with appropriate gas mixtures that yielded medium PO2, of ˜30-40 mmHg as measured by blood gas analyzer. […]
In unsedated mice RR (breaths/min), VT (μl), minute ventilation [VE (ml/min)=RR×VT], O2 consumption (VO2, ml/min), and CO2 production (VCO2 ml/min) were analyzed. […] Carotid body sensory activity (discharge from ‘single’ units) was averaged during 3 min of baseline and during the 3 min of gas challenge and expressed as impulses per second unless otherwise stated. […]

The subject of assay [6] is H2S generation in adrenal glands. Kind of assay: H2S generation in adrenal glands of rat pups. Type of assay: biochemical, rats. As to conditions: PAG treated rat pups vs vehicle; data not shown.
The nature of assay [7]: Respiration (rate and depth) in spontaneously hypertensive and Sprague-Dawley rats, whole body polysomnography. Type of assay: in vivo. As to conditions: FIG. 14. The procedure:
FIG. 14. […] Spontaneously hypertensive rats (SHR) were treated with the CSE inhibitor propargylglycine. Their respiration was measured using whole body polysomnography. The control animals were Sprague-Dawley rats.

Setting [8] is: systemic administration (1 mg/kg i.p.), CSE+/+ mice, FIG. 5B-D.

On to `COc1ccc(Cl)cc1C(=O)NCCc1ccc(S(=O)(=O)NC(=O)NC2CCCCC2)cc1` [glibenclamide], for which the “prevention of carotid body response to NaHS” value in assay [1] (100 μM glibenclamide, 100 μM NaHS, rats, FIG. 12) is listed as “failed to prevent”. In addition, the “prevention of carotid body response to hypoxia” value in assay [1] (100 μM glibenclamide, hypoxia PO2=42 mmHg, rats, FIG. 12) is “failed to prevent”.

As for `CCC1=C(C)c2cc3[n-]c(cc4nc(cc5[n-]c(cc1n2)c(C)c5CCC(=O)O)C(CCC(=O)O)=C4C)c(C)c3CC.[Cl][Cr+2]` [Cr (III) MP, Cr (III) mesoporphyrin IX chloride], in assay [2] (setting [8]), the “baseline carotid body activity” value is “significantly increased” and the “carotid body hypoxic response” value was “potentiated”. In addition, the “increase of H2S generation in carotid bodies” value in assay [3] (CSE+/+ mice) was found to be 6 fold. Also, the “increase of H2S generation in carotid bodies” value in assay [3] (CSE−/− (mutant) mice) is listed as “abolished”. Further, in assay [4] (rat carotid bodies, 1 and 100 μM, FIG. 13A), the “H2S generation in carotid bodies under normoxia” value is “enhanced”.

On to `C#CCC(N)C(=O)O` (racemic) [PAG, DL-propargylglycine], for which the “carotid body sensory response to hypoxia” value in assay [2] (CSE+/+ mice treated systemically with PAG (200 mg/kg i.p. 2-3 h before), FIG. 9) was “loss of the hypoxic response”; in assay [1] (PAG treated rats vs vehicle, FIG. 3B), “significantly attenuated”. Further, the “carotid body hypoxic response, acute application” value in assay [2] (acute application of PAG to the carotid body) was “ineffective in preventing the hypoxic response”. In assay [1] (PAG treated rats (same rats tested for hypoxia), FIG. 3C), the “carotid body response to CO2” value was “significantly augmented”. The “basal H2S levels in carotid body” value in assay [4] (PAG treated rats (vehicle=266±61)) came out at 147±50 nmol/h/mg protein. Further, the “reduction of basal H2S levels in carotid body” value in assay [4] (PAG treated rats vs vehicle, p<0.05) is reported as 55%. Further, the “hypoxia-evoked H2S generation in carotid bodies” value in assay [4] (PAG treated rats, graded hypoxia, FIG. 3A) was “nearly absent”. Further, the “K+-evoked catecholamine secretion” value in assay [5] was “unaffected”. The “hypoxia-induced increase of H2S generation in adrenal glands” value in assay [6] is reported as “greatly reduced or absent”. In addition, the respiration frequency entry in assay [7] (control Sprague-Dawley rats treated with PAG) is given as “reducing respiration frequency very slightly”. Further, the breathing pattern result in assay [7] (spontaneously hypertensive rats (SHR) treated with PAG) is “normalized”.

Regarding `N[C@@H](CS)C(=O)O` [L-cysteine], the “effect on carotid body hypoxic response” value in assay [1] (100 μM L-cysteine, isolated rat carotid body, FIG. 10) is listed as “no significant effect”.

On to `[Na+].[SH-]` [NaHS], for which the “carotid body sensory activity” value in assay [2] (exogenous NaHS 100 μM, CSE+/+ and CSE−/− mice, FIG. 11) is “augmented”; in assay [1] (exogenous NaHS, rats, FIG. 4A), “augmented”. The “carotid body response in Ca2+-free and EGTA containing medium” value in assay [1] (100 μM NaHS, rats, FIG. 4B) is on record as “abolished”. Further, in assay [1] (NaHS, activity returned to baseline after termination, FIG. 4A), the “onset of carotid body response after application” value is recorded as “within seconds”.

On to `O=[C]=[Ru]([Cl])([Cl])(=[C]=O)=[C]=O` [[Ru(CO)3Cl2]2, tricarbonyldichlororuthenium], for which the “H2S generation in carotid bodies under hypoxia” value in assay [4] (rat carotid bodies, hypoxia PO2=38 mmHg, 1 and 10 μM, FIG. 13B) was “inhibited H2S generation by hypoxia nearly to the levels seen under normoxia”.
